Residues, ends and D or L forms follow the SMILES beside them.
Tests used:
[1] = tested on: thrombin receptor (LM and RA assays); assay: Activity of cyclic TRPs in the bioassays previously described (assay not specified); format: cell-based; settings: concentration tested 9 to 200 μM, differs per compound
Procedure: (§1) The guinea pig gastric longitudinal muscle (GLM) strips and the rat thoracic aorta (RA) ring preparations were isolated as previously described 14, 15. In brief, gastric LM strips (3×10 mm), obtained from male albino Hartley strain guinea pigs were equilibrated for about 1.5 h at 37° (in an aerated (95% O2 /5% CO2) Krebs-Henseleit buffer (3 mL) of the following composition (in mM): NaCl, 118; KCl, 4.7; CaCl2, 2.5; MgCl2, 1.2; NaHCO3, 25; KH2 PO4, 1.2; and glucose, 10. The pH was maintained at 7.4. Rat gastric LM strips (3×10 mm) were obtained, as for the GLM strips, from male albino Sprague Dawley animals (250-300 g). The stomach, opened along the greater curvature, was stripped free of all mucosal tissue under microscopic visualization and longitudinal tissue strips were cut exactly at right angles to the visible circular muscle bundles. Tissue strips were pre-equilibrated in the buffer described above. Each tissue was challenged twice each in succession at timed intervals with 50 nM carbachol (20 min intervals), 1 μM angiotensin-II (1 h intervals) and 95 μM (60 μg/mL) receptor pentapeptide (P5, SFLLR, SEQ ID NO: 2) (25 min intervals for GLM; 30-35 min for RLM); tissues were washed at 10 and 15 min after the additions of agonists. Contractions were monitored isometrically using Statham force-displacement transducers. […]
Thoracic RA rings (2 mm×3 mm), obtained from male albino Sprague Dawley rats, were equilibrated (about 1 h, 37° ) in the same organ bath buffer as was used for the LM tissue, and tension (baseline 1.0 g) was monitored isometrically using either Statham or Grass force-displacement transducers. […] Therefore, to construct concentration-effect curves and to normalize data between individual preparations, the relaxation responses to P5 and to the other TRPs were expressed as a percentage of the relaxation caused by 215 μM (137 μg/mL) of P5 (% P5215). For purposes of comparison, the same stock solutions of an individual peptide were evaluated, relative to P5, in both the RA and LM bioassays. […]
Cyclic TRPs were evaluated using the bioassays previously described.

[2] = HPLC analysis of peptide recovered from RLM and RA organ bath solution; format: in vitro ADME, rat; settings: just after peak of tissue response (5-10 min)
Procedure: As illustrated in FIG. 4 (lanes C and D), the organ bath solution withdrawn from either a RLM or RA assay (30-60 μg/mL P5 or 47.5 to 95 μM), just after the peak of tissue response, was subjected to analysis by HPLC and compared with a standard solution of P5 made immediately before HPLC analysis either in buffer alone or in buffer that had been exposed to tissue under the conditions of a bioassay. […] In FIG. 4, the peptide degradation products would have been eluted at retention times earlier than those of either P5 (17.33 min) or P5--NH2 (16.83 min).

[3] = biological target: T1, thrombin receptor (guinea pig gastric longitudinal muscle strips) (Cavia porcellus, UniProt A0A286XH07); settings: for Relative potency (REC) GLM: average concentration ratio relative to P5 causing equal contractile response (REC = EC TRP ÷ EC P5)
T1 sequence (A0A286XH07 24-426): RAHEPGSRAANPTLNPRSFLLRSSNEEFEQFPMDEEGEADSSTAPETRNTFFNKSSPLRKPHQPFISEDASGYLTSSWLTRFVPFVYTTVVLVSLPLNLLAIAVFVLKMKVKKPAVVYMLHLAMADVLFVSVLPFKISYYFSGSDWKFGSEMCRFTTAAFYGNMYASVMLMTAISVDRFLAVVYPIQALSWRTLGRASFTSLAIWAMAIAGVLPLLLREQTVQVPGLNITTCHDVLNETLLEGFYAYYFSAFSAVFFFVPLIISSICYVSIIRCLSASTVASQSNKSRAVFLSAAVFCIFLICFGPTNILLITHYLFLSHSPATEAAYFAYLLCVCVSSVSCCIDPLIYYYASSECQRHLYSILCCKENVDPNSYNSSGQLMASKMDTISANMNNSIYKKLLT
Procedure: (§2) The guinea pig gastric longitudinal muscle (GLM) strips and the rat thoracic aorta (RA) ring preparations were isolated as previously described 14, 15. In brief, gastric LM strips (3×10 mm), obtained from male albino Hartley strain guinea pigs were equilibrated for about 1.5 h at 37° (in an aerated (95% O2 /5% CO2) Krebs-Henseleit buffer (3 mL) of the following composition (in mM): NaCl, 118; KCl, 4.7; CaCl2, 2.5; MgCl2, 1.2; NaHCO3, 25; KH2 PO4, 1.2; and glucose, 10. The pH was maintained at 7.4. Rat gastric LM strips (3×10 mm) were obtained, as for the GLM strips, from male albino Sprague Dawley animals (250-300 g). The stomach, opened along the greater curvature, was stripped free of all mucosal tissue under microscopic visualization and longitudinal tissue strips were cut exactly at right angles to the visible circular muscle bundles. Tissue strips were pre-equilibrated in the buffer described above. Each tissue was challenged twice each in succession at timed intervals with 50 nM carbachol (20 min intervals), 1 μM angiotensin-II (1 h intervals) and 95 μM (60 μg/mL) receptor pentapeptide (P5, SFLLR, SEQ ID NO: 2) (25 min intervals for GLM; 30-35 min for RLM); tissues were washed at 10 and 15 min after the additions of agonists. Contractions were monitored isometrically using Statham force-displacement transducers. Only tissues responding well to all three agonists were used further for the evaluation of the biological activities of P5 and other peptide agonists.

[4] = biological target: T2, thrombin receptor (rat gastric longitudinal muscle strips) (Rattus norvegicus, UniProt P26824); assay: Rat gastric longitudinal muscle (RLM) strip contractile assay; format: cell-based
T2 construct: Rat gastric LM strips (3×10 mm) were obtained; from tissue; host or cells: rat (Sprague Dawley) gastric longitudinal muscle strips
T2 sequence (P26824 22-432): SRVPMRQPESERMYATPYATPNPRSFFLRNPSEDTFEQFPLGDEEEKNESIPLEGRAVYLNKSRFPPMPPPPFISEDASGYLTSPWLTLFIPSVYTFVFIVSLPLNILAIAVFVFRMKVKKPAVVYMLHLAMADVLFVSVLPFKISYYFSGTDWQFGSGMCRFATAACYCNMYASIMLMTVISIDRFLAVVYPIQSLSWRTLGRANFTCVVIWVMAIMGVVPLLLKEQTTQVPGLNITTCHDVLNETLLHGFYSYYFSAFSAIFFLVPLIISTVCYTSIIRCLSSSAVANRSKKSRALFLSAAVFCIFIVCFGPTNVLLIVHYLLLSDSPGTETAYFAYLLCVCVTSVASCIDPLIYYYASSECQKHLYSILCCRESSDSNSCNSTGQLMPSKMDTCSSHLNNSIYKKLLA
Source text: We obtained an evaluation of the potencies of the various TRPs, relative to P5, by using the linear portions of the concentration-effect curves, so as to calculate for several response levels the average ratio of concentrations (REC) of an individual TRP, relative to concentration of P5 that caused the same contractile response (i.e. REC =ECTRP .div.ECPS). […] In the RA assay, a similar approach to the estimate of relative potencies (REC S) was used, even though all agonists, except for P5--OCH3, appeared to cause equivalent maximal relaxation (FIG. 2, lower).
as §2, with “peptide agonists. For the GLM and RLM assays, concentration-effect curves for all peptides were constructed by expressing the response of each agonist as a percentage (% P595) relative to the contraction caused by 95 μM (60 μg/mL) P5 (0.9±0.1 g tension: mean ±S.E.M. for n=12 in the GLM; 1.6±0.9 g tension: mean ±S.E.M. for n=36 in the RLM).” for “peptide agonists.”
Weighed peptide samples were routinely dissolved in 50 mM phosphate buffer, pH 7.4, to yield stock solutions, from which volumes of up to 0.2 mL were added directly to the organ bath; the concentrations of all stock solutions used were verified by quantitative amino acid analysis of aliquots. Pr-P4 and Pr-P4--NH2 were dissolved in 40 mM phosphate buffer, pH 7.4, containing 20% v/v absolute ethanol (i.e. 8 Vol of the above 50 mM phosphate buffer +2 Vol. ethanol). Control aliquots of the ethanol-containing phosphate buffer alone had no effect on either of the bioassay systems. Acetylcholine, carbachol, indomethacin, noradrenaline and angiotensin-II and thrombin (human, 3000 to 4000 U/mg; 1 U/mL.perspectiveto.10 nM) were from Sigma (St. Louis, Mo.); genistein (GS) was from ICN Biochemicals, Costa Mesa, Calif. Tyrphostin (TP) (RG 50864, also designated AG213) was obtained through the courtesy of Dr. R. R. Swillo, Rhone-Poulenc Rorer (Collegeville, Pa). […] Indomethacin was dissolved in ethanol, such that the final ethanol concentration in the organ bath was at or lower than 0.01% v/v; this concentration of ethanol alone had no effect on the bioassay systems.

[5] = tested on: thrombin receptor (rat thoracic aorta rings, intact endothelium); settings: for Relative potency (REC) RA: average concentration ratio relative to P5 causing equal relaxation response (REC = EC TRP ÷ EC P5)
Procedure: Thoracic RA rings (2 mm×3 mm), obtained from male albino Sprague Dawley rats, were equilibrated (about 1 h, 37° ) in the same organ bath buffer as was used for the LM tissue, and tension (baseline 1.0 g) was monitored isometrically using either Statham or Grass force-displacement transducers. The presence of an intact endothelium was ascertained by monitoring a relaxation response to acetylcholine (ACh, 1 μM) in a preparation that was submaximally (EC75) contracted by 0.1 μM noradrenaline (NA) in the presence of 0.1 mM ascorbic acid (to preserve the catecholamine). Only tissues yielding a relaxation concentration-response curve between 0.01 and 10 μM acetylcholine (maximal relaxation of 70 to 90%, relative to the tension developed by 0.1 μM NA) were used for the further evaluation of the receptor-derived peptides. The assay of TRP responsiveness was done (e.g. see FIG. 1) on tissues that were precontacted with 0.1 μM NA at 30 min time intervals. Tissues were washed approx. 5 min after the application of TRPs. […] For purposes of comparison, the same stock solutions of an individual peptide were evaluated, relative to P5, in both the RA and LM bioassays. When possible, both assays were done simultaneously on the same day.
Weighed peptide samples were routinely dissolved in 50 mM phosphate buffer, pH 7.4, to yield stock solutions, from which volumes of up to 0.2 mL were added directly to the organ bath; the concentrations of all stock solutions used were verified by quantitative amino acid analysis of aliquots. Pr-P4 and Pr-P4--NH2 were dissolved in 40 mM phosphate buffer, pH 7.4, containing 20% v/v absolute ethanol (i.e. 8 Vol of the above 50 mM phosphate buffer +2 Vol. ethanol). […] Indomethacin was dissolved in ethanol, such that the final ethanol concentration in the organ bath was at or lower than 0.01% v/v; this concentration of ethanol alone had no effect on the bioassay systems.

[6] = tested on: thrombin receptor (gastric longitudinal muscle strips); assay: Gastric longitudinal muscle (LM) assay, either or both GLM and RLM; format: cell-based
Procedure: LM: Either or both GLM and RLM
as §1, with “Each tissue was challenged twice each in succession at timed intervals with 50 nM carbachol (20 min intervals), 1 μM angiotensin-II (1 h intervals) and 95 μM (60 μg/mL) receptor pentapeptide (P5, SFLLR, SEQ ID NO: 2) (25 min intervals for GLM; 30-35 min for RLM); tissues were washed at 10 and 15 min after the additions of agonists.” left out
Weighed peptide samples were routinely dissolved in 50 mM phosphate buffer, pH 7.4, to yield stock solutions, from which volumes of up to 0.2 mL were added directly to the organ bath; the concentrations of all stock solutions used were verified by quantitative amino acid analysis of aliquots. […]

platelets = settings: reported previously; cited from earlier work

Molecule	Activity relative to SFLLR (SEQ ID NO:2) (P-5) (ECcyclic /ECP-5) [1]	Recovery of intact peptide from organ bath (HPLC) ([2]; RA organ bath)	Recovery of intact peptide from organ bath (HPLC) ([2]; RLM organ bath)	Relative potency (REC) GLM [3]	Relative potency (REC) RLM [4]	Relative potency (REC) RA [5]	further results
CC(C)C[C@@H]1NC(=O)[C@H](Cc2ccccc2)NC(=O)[C@H](CO)NC(=O)[C@H](CCCNC(=N)N)NC(=O)[C@H](CC(C)C)NC1=O	not active at this concentration	–	–	–	–	–	–
CC(C)C[C@@H]1NC(=O)[C@H](Cc2ccccc2)NC(=O)[C@H](CCCNC(=N)N)NC(=O)[C@H](CC(C)C)NC1=O (cyclo(FLLR))	2	–	–	–	–	–	–
CC(C)C[C@@H]1NC(=O)[C@H](Cc2ccccc2)NC(=O)CNC(=O)[C@H](CCCNC(=N)N)NC(=O)[C@H](CC(C)C)NC1=O (cyclo(FLLRG))	4	–	–	–	–	–	–
CC(C)C[C@H](NC(=O)[C@H](CC(C)C)NC(=O)[C@H](Cc1ccccc1)NC(=O)[C@@H](N)CO)C(=O)N[C@@H](CCCNC(=N)N)C(=O)O [P5, S42 FLLR46, reference compound]	–	Quantitative recovery	essentially quantitative recovery	1	1	1	–
CC(C)C[C@H](NC(=O)[C@H](CC(C)C)NC(=O)[C@H](Cc1ccccc1)NC(=O)[C@@H](N)CO)C(=O)N[C@@H](CCCNC(=N)N)C(N)=O [P5-NH-2, S42 FLLR46 -amide]	–	recovered essentially intact	recovered essentially intact	0.1	0.2	0.1	Desensitization on repeated administration ([3]; GLM): not; Desensitization [6]: did not; Agonist (relaxation) activity ([5]; RA, precontracted with 0.1 μM noradrenaline): transient relaxation
SFALR	–	–	–	–	–	–	Activity in platelets (platelets): little impact on the activity
